Where two headings read alike, the source gives them in different places.
Tests used:
[1] = 298.15 K, cited from earlier work
[2] = for TΔSsol0 / ΔGsol0 / ΔHsol0 / ΔSsol0: dissolution; for ςHsolv: relative fraction of solvation enthalpy; for ςTSsolv: relative fraction of solvation entropy; for TΔSsolv0 / ΔGsolv0 / ΔHsolv0 / ΔSsolv0: solvation
[3] = for solubility X2·10^5: p = 0.1 MPa, value is X2·10^5
Procedure: All the solubility experiments were carried out using the analytical isothermal shake-flask method. […] In brief, an excess amount of API was added to triplicate Pyrex glass tubes containing the respective dissolution media. […] The concentrations of the dissolved APIs were measured spectrophotometrically using a Cary 50 UV-vis spectrophotometer (Varian, Australia) with an accuracy of 2–4%.
Conversion of molarity to mole fraction concentration scale was produced using Equation (10):(10) X2=M2S2/S2(M2−M1)+1000ρ where S2 is molarity of API (mol·L^−1), M1 and M2 are the molar masses of solvent and solute, respectively, and ρ (g·cm^−3) is the density of the pure solvents. The mole fraction solubilities for buffer solutions were calculated taking into account the buffer compositions. Densities of buffer solutions (pH 2.0 and 7.4) were measured and published early.
The results are stated as the average of at least three replicated experiments.

[4] = ref Koradia et al. [34]; cited from earlier work
[5] = remark: listed apart in the source
Procedure: Details of the technique are given in the literature. In brief: a flow of the inert gas (N2) through the tube transported the saturated vapor of the sample under investigation at a constant temperature and flow rate. The sample vapor is completely condensed at some point downstream. The sample vapor pressure at this temperature was calculated from the sublimated sample amount and the volume of the inert gas used. The mass of sublimated substance was determined using a spectrophotometer method by means of spectrophotometer Cary-50 (Varian, Australia).
The equipment was calibrated with benzoic acid, as specified in earlier work of our research group.
Absolute vapor pressures for compounds are usually approximated by the Clarke–Glew equation [38].
The value of the sublimation enthalpy is calculated by the Clausius–Clayperon equation:(7) ΔcrgHm0(T)=−R⋅(∂(lnp)/∂(1/T))
The sublimation entropy at a given temperature T is calculated by the following relation:(8) ΔcrgSm0(T)=(ΔcrgHm0(T)−ΔcrgGm0(T))/T with ΔcrgGm0(T)=−RTln(p/p0) , where p0 is the standard pressure (1 × 10^5 Pa).
For experimental reasons, the sublimation data are obtained at high temperatures. However, in comparison with the effusion methods, the temperatures are much lower, which makes extrapolation to room conditions easier.
Van der Waals molecular volumes ( V^vdw ) were estimated by the program GEPOL [50] using atom radiuses proposed by Kitaigorodskii. The free molecular volume in the crystal lattice was calculated on the basis of the single crystal X-ray diffraction data:(14) V^free=V^mol−V^vdw where V^mol is the molecular volume in crystal lattice, which is estimated by the equation:(15) V^mol=V^cell/Z where V^cell is the unit cell volume and Z is the number of molecules in the unit cell.

[6] = buffer pH 2.0, 298.15 K (Table 5)
[7] = buffer pH 7.4, 298.15 K (Table 5)

Q: Which results are given for `O=C1CCC(=O)N1` [Succinimide]?
A: Δgcr Hm0 (298.15) ([1]; ref [6]): 20 kcal/mol; ΔgcrGm0 (298.15) ([1]; ref [6]): 8.77 kcal/mol

Q: What does the source list for `O=C1CNC(=S)N1` [2-Thiohydantoin]?
A: Δgcr Hm0 (298.15) ([1]; ref [7]): 28.47 kcal/mol; ΔgcrGm0 (298.15) ([1]; ref [7]): 14.4 kcal/mol

Q: With `O=C1NCCN1` [2-imadazolidinone] as the molecule, how does the “Δgcr Hm0 (298.15)” value ([1]; ref [5]) read?
A: 20 kcal/mol

Q: What about the “ΔgcrGm0 (298.15)” value ([1]; ref [5]) of the same molecule?
A: 10.2 kcal/mol

Q: With `O=Cc1ccc(-c2ccc([N+](=O)[O-])cc2)o1` [5-(4-nitrophenyl)-furan-2-carbaldehyde] as the molecule, how does the “Δgcr Hm0 (298.15)” value ([1]; ref [8]) read?
A: 32.48 kcal/mol

Q: And the “ΔgcrGm0 (298.15)” value ([1]; ref [8])?
A: 15.6 kcal/mol

Q: What does the source list for `O=C1CNC(=O)N1` [2,4-Imidazolidinedione]?
A: Δgcr Hm0 (298.15) ([1]; ref [7]): 27.8 kcal/mol; ΔgcrGm0 (298.15) ([1]; ref [7]): 13.8 kcal/mol

Q: For `O.O=C1CN(/N=C/c2ccc([N+](=O)[O-])o2)C(=O)N1` [[NFT + H2O], nitrofurantoin monohydrate], which TΔSsol0 ([2]; buffer pH 2.0, 298.15 K) is on record?
A: 5.04 kcal/mol

Q: What about the ΔGsol0 ([2]; buffer pH 2.0, 298.15 K) of the same molecule?
A: 7 kcal/mol

Q: And the ΔHsol0 ([2]; buffer pH 2.0, 298.15 K)?
A: 12.1 ± 0.406 kcal/mol

Q: And the ΔSsol0 ([2]; buffer pH 2.0, 298.15 K)?
A: 70.9 ± 2.6 J·K^−1·mol^−1

Q: What about the TΔSsol0 ([2]; buffer pH 7.4, 298.15 K) of the same molecule?
A: 10.6 kcal/mol

Q: And the ΔGsol0 ([2]; buffer pH 7.4, 298.15 K)?
A: 6.41 kcal/mol

Q: And the ΔHsol0 ([2]; buffer pH 7.4, 298.15 K)?
A: 17.2 ± 0.287 kcal/mol

Q: What about the ΔSsol0 ([2]; buffer pH 7.4, 298.15 K) of the same molecule?
A: 148.5 ± 2.0 J·K^−1·mol^−1

Q: And the “difference between equilibrium solubility of the monohydrate and solubility of anhydrous NFT” value ([3]; 313.15 K)?
A: ≤ 15%

Q: And the “X2 (solubility)” value [3, 6]?
A: 0.73·10^5 mol.frac.

Q: What about the “solubility X2·10^5” value ([3]; buffer pH 2.0, 298.15 K) of the same molecule?
A: 0.73 mol. frac.

Q: And the “solubility X2·10^5” value ([3]; buffer pH 2.0, 303.15 K)?
A: 1.07 mol. frac.

Q: What about the “solubility X2·10^5” value ([3]; buffer pH 2.0, 308.15 K) of the same molecule?
A: 1.43 mol. frac.

Q: What about the “solubility X2·10^5” value ([3]; buffer pH 2.0, 313.15 K) of the same molecule?
A: 1.96 mol. frac.

Q: What about the “X2 (solubility)” value [3, 7] of the same molecule?
A: 1.98·10^5 mol.frac.

Q: What about the “solubility X2·10^5” value ([3]; buffer pH 7.4, 303.15 K) of the same molecule?
A: 2.34 mol. frac.

Q: And the “solubility X2·10^5” value ([3]; buffer pH 7.4, 308.15 K)?
A: 3.83 mol. frac.

Q: What about the “solubility X2·10^5” value ([3]; buffer pH 7.4, 313.15 K) of the same molecule?
A: 5.90 mol. frac.

Q: And the “ΔHw, vaporization enthalpy of water from the crystal” value (from DSC and TG, Equation (4))?
A: 14.4 kcal/mol

Q: What about the “sublimation enthalpy computed using Equation (5)” value (thermodynamic cycle: sublimation enthalpy of NFT + ΔHw) of the same molecule?
A: 47.85 kcal/mol

Q: And the “activation energy of dehydration process” value [4]?
A: 46.8 to 47.1 kcal/mol

Q: Which results are given for `O=C1CN(/N=C/c2ccc([N+](=O)[O-])o2)C(=O)N1` [NFT, nitrofurantoin]?
A: TΔSsol0 ([2]; 1-octanol, 298.15 K): 4.18 kcal/mol; ΔGsol0 ([2]; 1-octanol, 298.15 K): 6.07 kcal/mol; ΔHsol0 ([2]; 1-octanol, 298.15 K): 10.2 ± 0.406 kcal/mol; ΔSsol0 ([2]; 1-octanol, 298.15 K): 58.5 ± 2.5 J·K^−1·mol^−1; TΔSsol0 ([2]; buffer pH 2.0, 298.15 K): -0.22 kcal/mol; ΔGsol0 ([2]; buffer pH 2.0, 298.15 K): 6.57 kcal/mol; ΔHsol0 ([2]; buffer pH 2.0, 298.15 K): 6.36 ± 0.669 kcal/mol; ΔSsol0 ([2]; buffer pH 2.0, 298.15 K): −3.1 ± 3.7 J·K^−1·mol^−1; TΔSsol0 ([2]; buffer pH 7.4, 298.15 K): 2.84 kcal/mol; ΔGsol0 ([2]; buffer pH 7.4, 298.15 K): 6.12 kcal/mol; ΔHsol0 ([2]; buffer pH 7.4, 298.15 K): 8.96 ± 0.454 kcal/mol; ΔSsol0 ([2]; buffer pH 7.4, 298.15 K): 39.9 ± 2.7 J·K^−1·mol^−1; ςHsolv ([2]; 1-octanol, 298.15 K): 70.3%; ςHsolv ([2]; buffer pH 2.0, 298.15 K): 65.8%; ςHsolv ([2]; buffer pH 7.4, 298.15 K): 68.8%; ςTSsolv ([2]; 1-octanol, 298.15 K): 29.7%; ςTSsolv ([2]; buffer pH 2.0, 298.15 K): 34.2%; ςTSsolv ([2]; buffer pH 7.4, 298.15 K): 31.2%; TΔSsolv0 ([2]; 1-octanol, 298.15 K): -10.5 kcal/mol; ΔGsolv0 ([2]; 1-octanol, 298.15 K): -14.3 kcal/mol; ΔHsolv0 ([2]; 1-octanol, 298.15 K): -24.78 kcal/mol; ΔSsolv0 ([2]; 1-octanol, 298.15 K): −147.0 J·K^−1·mol^−1; TΔSsolv0 ([2]; buffer pH 2.0, 298.15 K): -14.9 kcal/mol; ΔGsolv0 ([2]; buffer pH 2.0, 298.15 K): -13.8 kcal/mol; ΔHsolv0 ([2]; buffer pH 2.0, 298.15 K): -28.66 kcal/mol; ΔSsolv0 ([2]; buffer pH 2.0, 298.15 K): −208.6 J·K^−1·mol^−1; TΔSsolv0 ([2]; buffer pH 7.4, 298.15 K): -11.8 kcal/mol; ΔGsolv0 ([2]; buffer pH 7.4, 298.15 K): -14.2 kcal/mol; ΔHsolv0 ([2]; buffer pH 7.4, 298.15 K): -26.05 kcal/mol; ΔSsolv0 ([2]; buffer pH 7.4, 298.15 K): −165.6 J·K^−1·mol^−1; X2 (solubility) ([3]; 1-octanol, 298.15 K (Table 5)): 3.61·10^5 mol.frac.; solubility X2·10^5 ([3]; 1-octanol, 298.15 K): 3.61 mol. frac.; solubility X2·10^5 ([3]; 1-octanol, 303.15 K): 4.97 mol. frac.; solubility X2·10^5 ([3]; 1-octanol, 308.15 K): 6.53 mol. frac.; solubility X2·10^5 ([3]; 1-octanol, 313.15 K): 8.26 mol. frac.; X2 (solubility) [3, 6]: 1.49·10^5 mol.frac.; solubility X2·10^5 ([3]; buffer pH 2.0, 298.15 K): 1.49 mol. frac.; solubility X2·10^5 ([3]; buffer pH 2.0, 303.15 K): 1.82 mol. frac.; solubility X2·10^5 ([3]; buffer pH 2.0, 308.15 K): 2.26 mol. frac.; solubility X2·10^5 ([3]; buffer pH 2.0, 313.15 K): 2.46 mol. frac.; X2 (solubility) [3, 7]: 3.28·10^5 mol.frac.; solubility X2·10^5 ([3]; buffer pH 7.4, 298.15 K): 3.28 mol. frac.; solubility X2·10^5 ([3]; buffer pH 7.4, 303.15 K): 4.33 mol. frac.; solubility X2·10^5 ([3]; buffer pH 7.4, 308.15 K): 5.51 mol. frac.; solubility X2·10^5 ([3]; buffer pH 7.4, 313.15 K): 6.72 mol. frac.; 298.15⋅ΔcrgSm0(298.15K) ([5]; 298.15 K): 14.7 kcal/mol; ΔcrgGm0(298.15), sublimation Gibbs energy ([5]; 298.15 K): 20.4 kcal/mol; ΔcrgHm0(298.15K), sublimation enthalpy ([5]; 298.15 K): 35.01 ± 0.17 kcal/mol; ΔcrgSm0(298.15K), sublimation entropy ([5]; 298.15 K): 205.5 ± 2.8 J·mol^−1·K^−1; ΔcrgHm0(T), sublimation enthalpy ([5]; at experimental temperature T): 33.44 ± 0.17 kcal/mol; ςH ([5]; enthalpy term of sublimation, 298.15 K): 70.5%; ςTS ([5]; entropy term of sublimation, 298.15 K): 29.5%; p(298.15K), saturated vapor pressure ([5]; extrapolated to 298.15 K): 1.19·10^−10 Pa; β = V^free/V^vdw ([5]; free volume in the crystal lattice over van der Waals volume): 36.3%

Reference: paper PMC8201255, “A Combined Experimental and Theoretical Study of Nitrofuran Antibiotics: Crystal Structures, DFT Computations, Sublimation and Solution Thermodynamics” (Molecules, 2021)
